Experimental data: PubChem BioAssay (NCI)
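96-well plates; 48 h exposure; 5 concentrations. Endpoints by linear interpolation between flanking doses. Not reached: highest tested concentration assigned. GI50 marks 50% less growth. TGI denotes the concentration required for complete inhibition of growth.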

How the values were obtained:
Assay in all cases: inhibition of tumour cell growth, NCI panel, 48 h
HT29 colon = tested on: HT29 colon
NCI-H23 lung = tested on: NCI-H23 lung
OVCAR-3 ovarian = tested on: OVCAR-3 ovarian
OVCAR-4 ovarian = tested on: OVCAR-4 ovarian
OVCAR-8 ovarian = tested on: OVCAR-8 ovarian
SK-MEL-2 melanoma = tested on: SK-MEL-2 melanoma
SK-MEL-28 melanoma = tested on: SK-MEL-28 melanoma
SK-MEL-5 melanoma = tested on: SK-MEL-5 melanoma
EKVX NSCLC = tested on: EKVX NSCLC
SF-539 CNS = tested on: SF-539 CNS

Compound | GI50 (HT29 colon) [µM] | TGI (HT29 colon) [µM] | GI50 (NCI-H23 lung) [µM] | TGI (NCI-H23 lung) [µM] | GI50 (OVCAR-3 ovarian) [µM] | TGI (OVCAR-3 ovarian) [µM] | GI50 (OVCAR-4 ovarian) [µM] | TGI (OVCAR-4 ovarian) [µM] | GI50 (OVCAR-8 ovarian) [µM] | TGI (OVCAR-8 ovarian) [µM] | GI50 (SK-MEL-2 melanoma) [µM] | GI50 (SK-MEL-28 melanoma) [µM] | TGI (SK-MEL-28 melanoma) [µM] | GI50 (SK-MEL-5 melanoma) [µM] | TGI (SK-MEL-5 melanoma) [µM] | TGI (EKVX NSCLC) [µM] | TGI (SF-539 CNS) [µM] | TGI (SK-MEL-2 melanoma) [µM] | GI50 (EKVX NSCLC) [µM] | GI50 (SF-539 CNS) [µM]
CC(=O)[O][Hg][c]1s[c]([Hg][O]C(C)=O)[c]([Hg][O]C(C)=O)[c]1[Hg][O]C(C)=O | 19.5 | > 100 | 19.7 | > 100 | 21.4 | > 100 | 12.7 | 87.7 | 2.93 | > 100 | 2.19 | 1.18 | 5.52 | 1.24 | 3.12 | – | – | – | – | –
Cc1ccc(C)c(NC(=O)C(=O)Nn2c(=S)[nH]c3ccccc3c2=O)c1 | – | > 100 | – | > 100 | – | – | – | > 100 | – | > 100 | – | – | > 100 | – | > 100 | > 100 | > 100 | > 100 | – | –
O/N=C1\C(=C\c2ccc3c(c2)OCCO3)CCCC1C(NO)c1ccc2c(c1)OCCO2 (configuration not stated) | – | 32.3 | – | – | – | 39.6 | – | > 100 | – | > 100 | – | – | 32.5 | – | 30.1 | 69.6 | 26.8 | – | – | –
O=C1CC2OCC=C3CN4CCC5(C(=O)O)C(N1)C2C3CC45 (configuration not stated) | – | > 100 | – | > 100 | – | > 100 | – | > 100 | – | > 100 | – | – | > 100 | – | > 100 | > 100 | > 100 | > 100 | – | –
CC1OC(=O)N2CCC=CC12 (configuration not stated) | – | > 100 | – | > 100 | – | > 100 | – | > 100 | – | > 100 | – | – | > 100 | – | > 100 | > 100 | > 100 | > 100 | – | –
C=Cc1cc(OC)c2c(c1)c(=O)oc1c2cc(OC)c2c(O)ccc(C3OC(C(C)O)C(O)C3O)c21 (configuration not stated) | 0.00666 | > 1 | 0.000928 | 0.0151 | 0.0155 | 0.0423 | 0.053 | 0.703 | 0.0114 | 0.212 | – | 0.0225 | 0.0525 | 0.00775 | 0.0555 | 0.0336 | 0.0527 | – | 0.00403 | 0.0146
COc1ccc(/C=C/C(=O)c2ccc(Nc3nc(Nc4ccc(F)cc4)nc(Nc4ccc(F)cc4)n3)cc2)cc1 | 18.1 | > 100 | 14.4 | 32.5 | 26.7 | > 100 | 27.4 | > 100 | 8.49 | 30.1 | 14.1 | 56.8 | > 100 | 3.51 | 18.5 | > 100 | 60.1 | 34.6 | 23.9 | 23.2
Nc1ccn(C2CC3OCC3O2)c(=O)n1 (configuration not stated) | – | > 100 | – | > 100 | – | > 100 | – | > 100 | – | > 100 | – | – | > 100 | – | > 100 | > 100 | > 100 | > 100 | – | –
CC(C)OP(=O)(OC(C)C)/C(C#N)=C/c1c[nH]c2ccccc12 | – | > 100 | – | > 100 | – | > 100 | – | > 100 | – | > 100 | – | – | > 100 | – | > 100 | > 100 | > 100 | > 100 | – | –
COc1cc([C@@H]2c3cc4c(cc3[C@@H](NCc3cccc(F)c3)C3COC(=O)[C@@H]32)OCO4)cc(OC)c1O (some centres not stated) | – | 29.5 | – | 7.89 | – | 30.5 | – | > 65 | – | 25.3 | – | – | 45.9 | – | 17.9 | 38 | 10.8 | 29.5 | – | –
Cc1nc(-n2nc(-c3ccccc3)cc2-c2ccccc2)sc1C(=O)/C=C/c1cccc([N+](=O)[O-])c1 | – | 28.1 | – | 41.8 | – | 15.4 | – | – | – | > 100 | – | – | 34.1 | – | 26.7 | > 100 | 22.8 | 34.2 | – | –
O=[N+]([O-])c1ccc2nc(-c3ccc(Cl)cc3)[nH]c2c1 | – | 32.8 | – | > 100 | – | 89.3 | – | > 100 | – | > 100 | – | – | > 100 | – | 29.7 | 40.3 | 39.6 | – | – | –
CCCC(=O)OC(OC(=O)CCC)c1ccc([N+](=O)[O-])o1 | – | 42.8 | – | 48.8 | – | 41.4 | – | – | – | > 100 | – | – | 46.9 | – | > 100 | 99.6 | > 100 | 86.2 | – | –
Cc1ccc([N+]2=NC(c3ccccc3)=NN(c3ccccc3)C2)cc1 | – | > 100 | – | > 100 | – | > 100 | – | > 100 | – | > 100 | – | – | > 100 | – | 73.6 | > 100 | – | – | – | –
COC(=O)C(C)Oc1ccc(O)cc1 (configuration not stated) | – | > 100 | – | > 100 | – | > 100 | – | > 100 | – | > 100 | – | – | 62 | – | > 100 | > 100 | > 100 | – | – | –
COc1ccc2c(c1)C=CC1C2CC[C@]2(C)C(NC(=O)/C=C/c3ccc(O)c(O)c3)CCC12 (some centres not stated) | – | – | 16.3 | 38.3 | 7.19 | 27.8 | – | – | 14.2 | > 100 | 25.7 | 16.2 | 32 | 14.9 | 40.1 | 56.5 | 43.5 | 62.1 | 18.8 | 18.6
C[C@@H]1Cc2c(ccc3[nH]ncc23)[C@@H](c2ccc(NC3CN(CCCF)C3)cn2)N1CC(F)(F)F | 13.7 | 43.2 | – | – | 20.3 | 57.8 | 32.9 | > 100 | 23.5 | 69.8 | 19 | 16.5 | 32.1 | 14.3 | 28.2 | > 100 | 32.5 | 42.9 | 28.9 | 16.9
N/C(CC(=O)NOC(=O)c1ccccc1)=N/OC(=O)c1ccccc1 | – | > 100 | – | > 100 | – | > 100 | – | 75 | – | > 100 | – | – | 99.4 | – | > 100 | 77.5 | 54.8 | – | – | –
